The text below walks through data of publication PMC7194175 (Nature plants, 2019).

One assay concerns the target T1, CYP72A9 (Arabidopsis thaliana, UniProt F4IW82).
T1 sequence (F4IW82 1-508): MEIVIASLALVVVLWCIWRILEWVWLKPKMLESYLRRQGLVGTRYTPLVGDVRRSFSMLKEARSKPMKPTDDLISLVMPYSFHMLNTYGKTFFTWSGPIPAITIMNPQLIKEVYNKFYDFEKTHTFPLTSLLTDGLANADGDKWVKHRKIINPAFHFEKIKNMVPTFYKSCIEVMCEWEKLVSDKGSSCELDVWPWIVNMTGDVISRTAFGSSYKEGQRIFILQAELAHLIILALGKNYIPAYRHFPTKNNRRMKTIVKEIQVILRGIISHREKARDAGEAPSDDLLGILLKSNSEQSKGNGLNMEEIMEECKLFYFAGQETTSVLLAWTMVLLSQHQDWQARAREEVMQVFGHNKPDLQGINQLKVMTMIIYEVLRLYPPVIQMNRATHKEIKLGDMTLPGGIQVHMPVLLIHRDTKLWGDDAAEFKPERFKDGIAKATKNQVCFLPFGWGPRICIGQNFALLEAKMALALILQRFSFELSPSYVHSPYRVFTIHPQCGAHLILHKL
The assay is described as follows: feeding of recombinant WAT11 yeast culture, GC-MS of products. Format: cell-based. The following applies: AtCPR1 co-expressed, 30 °C, 16 h.

The target of the next assay is T2, CYP72A15 (Arabidopsis thaliana, UniProt Q9LUC5).
T2 sequence (Q9LUC5 1-512): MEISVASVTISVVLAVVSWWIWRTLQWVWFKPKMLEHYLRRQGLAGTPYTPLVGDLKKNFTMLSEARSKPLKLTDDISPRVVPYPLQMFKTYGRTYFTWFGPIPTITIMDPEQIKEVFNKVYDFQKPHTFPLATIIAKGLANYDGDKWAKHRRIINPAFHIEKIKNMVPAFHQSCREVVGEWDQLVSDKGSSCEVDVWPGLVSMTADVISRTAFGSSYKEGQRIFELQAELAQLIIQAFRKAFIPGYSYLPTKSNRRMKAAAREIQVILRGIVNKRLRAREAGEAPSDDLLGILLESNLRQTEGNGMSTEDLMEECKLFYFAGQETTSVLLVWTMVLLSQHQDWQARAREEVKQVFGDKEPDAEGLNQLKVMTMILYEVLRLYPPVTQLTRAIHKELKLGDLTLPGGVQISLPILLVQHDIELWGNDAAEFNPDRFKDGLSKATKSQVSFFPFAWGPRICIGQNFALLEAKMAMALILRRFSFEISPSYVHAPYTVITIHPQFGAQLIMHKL
The assay is described as above. The following applies: AtCPR1 co-expressed; 30 °C, 16 h. The format is cell-based.

For the molecule `C=C1C[C@]23C[C@H]1CC[C@H]2[C@]1(C)CCC[C@@](C)(C(=O)O)[C@H]1[C@@H]3C(=O)O` [GA12], the “feeding of recombinant WAT11 yeast culture, GC-MS of products” value was “hydroxylating GA4, GA9, and GA12 at C13 position to produce GA1, GA20, and GA53” at CYP72A9 (13-hydroxylation to GA53); “utilized ent-kaurenoic acid, GA12 and GA9 as substrates rather than GA4” on CYP72A15.

Turning to `C=C1C[C@]23C[C@H]1CC[C@H]2[C@@]12CC[C@H](O)[C@@](C)(C(=O)O1)[C@H]2[C@@H]3C(=O)O` [GA4], on CYP72A9 (13-hydroxylation to GA1), the “feeding of recombinant WAT11 yeast culture, GC-MS of products” value was “hydroxylating GA4, GA9, and GA12 at C13 position to produce GA1, GA20, and GA53”.
